Assay results published in patent US20220249538A1, “TREATMENT AGENT FOR SEX HORMONE-INSENSITIVE GREB1-POSITIVE TUMORS” (OSAKA UNIVERSITY, priority 2019, published 2022).

Assays:
Assay type in all cases: cell-based, human
HepG2 cells [1] = assay: Three-dimensional Matrigel culture, area of spheres; details: 3D Matrigel for 5 days
Experimental: Cells grown on a glass cover slip were fixed with PBS containing 4% (w/v) paraformaldehyde at room temperature for 10 minutes, and permeabilization treatment was performed in PBS containing 0.2% (w/v) Triton X-100 and 2 mg/ml BSA for 10 minutes. Further, cells grown by three-dimensional culture were fixed in PBS containing 4% (w/v) paraformaldehyde at room temperature for 30 minutes, and blocked in PBS containing 0.5% (w/v) Triton X-100 and 40 mg/ml BSA for 30 minutes. […]
Further, HepG2 cells transfected with control siRNA or siRNA (GREB1 #2 siRNA) were cultured in 3D Matrigel for 5 days, and the cultured cells were stained with phalloidin to measure the areas of spheres (n=20). […] The ratio of spheres having polarized lumens was calculated as a ratio of spheres having F-actin-positive central microlumen to the total spheres.
Further, HepG2 cells expressing GFP or GFP-GREB1 were transfected with control ASO or each of the above-described GREB1 ASOs, and cultured in three-dimensional Matrigel for 4 days. The cultured cells were stained with phalloidin and Hoechst33342, and the areas of spheres were calculated (n=50).

HepG2 cells [2] = assay: Cell viability by propidium iodide and Hoechst33342 staining; details: medium without Z-VAD, 0.1% FBS, 2 days; PI and Hoechst33342
Experimental: Further, HepG2 cells were transfected with control siRNA or siRNAs (GREB1 #1 siRNA and GREB1 #2 siRNA), cultured in media (caspase inhibitor Z-VAD was contained in one condition, and not contained in the other condition) containing 0.1% FBS for 2 days, stained with propidium iodide (PI, […]) and Hoechst33342 (nucleus), and the cell viability was evaluated.
Further, HepG2 cells transfected with control siRNA, GREB1 siRNA (GREB1 #2 siRNA), p15 siRNA, or siRNA of GREB1 (GREB1 #2 siRNA) and siRNA of p15 in combination were cultured in media (caspase inhibitor Z-VAD was contained in one condition, and not contained in the other condition) containing 0.1% FBS for 2 days, stained with propidium iodide (PI) and Hoechst33342, and the cell viability was calculated.

HepG2 cells [3] = assay: mRNA (real-time PCR) and protein (lysate probing) expression in HepG2 cells
Experimental: Using RNAiMAX (Life Technologies/Thermo Fisher Scientific), HepG2 cells, Huh6 cells, Hep3B cells, JHH7 cells, and SKMEL28 cells were each transfected with each siRNA (10 nm). In experiments, the cells were used from 48 to 120 hours after transfection.

“GREB1 #2 siRNA: siRNA against human GREB1; sense 5′-CCUCCUACAAAGCAAUAUUTT-3′ (SEQ ID NO: 6), antisense SEQ ID NO: 7 (antisense AAUAUUGCUUUGUAGGAGGTT; chemistry not given here)” was tested, and the “ratio of spheres having polarized lumens” value (HepG2 cells [1]) was “increased”, the area of sphere (HepG2 cells [1]; phalloidin, n=20) was “reduced the area of sphere to half” and the “cell death of HepG2 cells” value (HepG2 cells [2]) was “elevated cell death”. For the same substance, the “expression levels of PAI-1 and SNAIL2” value (HepG2 cells [3]; HepG2/GFP cells, real-time PCR, n=3) was “increased”, the “PAI-1 and SNAIL2 phenotypes of GREB1 knockdown” value (HepG2 cells [3]; HepG2/GFP-GREB1 cells (expression of GFP-GREB1)) was “restored” and the “amounts of cleaved caspase 3 and PARP1” value (HepG2 cells [3]; HepG2 cells, 0.1% FBS for 2 days, lysate probing) was “increased”. The “expressions of β-catenin and Axin2” value (HepG2 cells [3]; HepG2 cells, GREB1 knockdown, lysate probing) was “no effect”, the “expressions of PRLR and XBP1 (ER signal target genes)” value (HepG2 cells [3]; HepG2 cells, GREB1 knockdown, real-time PCR) was “no effect” and the “expression of cell cycle regulators cyclinA, cyclinB, phosphorylated histone H3” value (HepG2 cells [3]; HepG2 cells, medium containing 1% FBS for 1 day, lysate probing) was “decreases”. For the same substance, the “increases in mRNA levels of PAI-1 and SNAIL2 by knockdown of GREB1” value (HepG2 cells [3]; HepG2 cells, presence or absence of TGFβ receptor inhibitor (ALK5 inhibitor)) was “TGFβ receptor signal dependent”, the “expressions of DLK1, AFP, and PEG3” value (HepG2 cells [3]; HepG2 cells, real-time PCR) was “significantly decreased” and the “decrease in expression of AFP by knockdown of GREB1” value (HepG2 cells [3]; Smad2/3 knockout HepG2 cells vs HepG2 cells, real-time PCR) was “restored”. For the same substance, the “decrease in expression of DLK1 by knockdown of GREB1” value (HepG2 cells [3]; effect of Smad2/3 knockout in HepG2 cells) was “no effect”.
